For orientation: EC50 means the concentration at which the effect is half-maximal. A high value points to weaker potency.

Where two headings read alike, the source gives them in different places.

Series [1] has as its system Daudi cell line (AID positive). Briefly: Primary screening cell killing assay, Daudi cell line (AID positive). The class given is cell-based. As to conditions: Homo sapiens, 168 h, cell death on Day 7, Cell-Titer Glo. A digest of the protocol: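 AID-positive Daudi cells, 1250 per well, were exposed to serially diluted compounds for 7 days at 37° C. Viability read by CellTiter-Glo luminescence; percent cell death and EC50 derived against untreated wells after media-blank subtraction.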

In series [2] the test system is WI-38 cells (AID negative). Briefly: Primary screening cell killing assay repeated in WI-38 cells (AID negative). The series is classed as cell-based. Conditions: Homo sapiens, 168 h, cell death on Day 7, Cell-Titer Glo. Summed up: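 Cell-killing counter-screen in AID-negative WI-38 cells, probing RAD51 inhibition via AID/RAD51 synthetic lethality. Viability luminescence (RLU) was media-subtracted, normalized to DMSO wells, and converted to percent kill (1 − normalized RLU) × 100; EC50 came from non-linear regression on a semi-log scale.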

Series [3] in a line: Bi-directional Caco-2 permeability. The series is classed as in vitro ADME. Conditions: human; for efflux ratio at 90 min: Caco-2, read-out: BA/AB Ratio; for Papp A→B at 90 min: Caco-2, apical to basolateral, read-out: AB Papp (cm/sec × 10^6); for Papp A→B at 90 min / Papp B→A at 90 min: 37 C, up to 90 minutes; for Papp B→A at 90 min: Caco-2, basolateral to apical, read-out: BA Papp (cm/sec × 10^6). As for the experimental part:
Bi-directional Caco-2 permeability was assayed. Caco-2 cells were seeded onto permeable polycarbonate supports and allowed to differentiate for about 3 weeks prior to being used in the assays. The cells were then exposed to the compounds from either the apical or basolateral sides and incubated at 37 C for up to 90 minutes under light agitation. Compound transport was then measured using LC/MS/MS analysis at 30, 60, and 90 minutes.
On the technique in general: Passage across Caco-2 layers is used to estimate intestinal permeability.

Where [4] appears, read: Caco-2, Caco-2, AB direction, read-out: AB Recovery %.
Setting [5] is: Caco-2, Caco-2, BA direction, read-out: BA Recovery %.

Regarding `CC(C)(C)NS(=O)(=O)c1cc(NC(=O)NCc2ccccn2)ccc1-c1cnc(C2CCC(NC(=O)OC3COC3)CC2)s1` (centres unmarked) [Ex. 50, oxetan-3-yl ((1r,4r)-4-(5-(2-(N-(tert-butyl)sulfamoyl)-4-(3-(pyridin-2-ylmethyl)ureido)phenyl)thiazol-2-yl)cyclohexyl)carbamate], the 50% effective concentration (EC50) in series [1] was ≤ 100 nM. In addition, in series [2], the EC50 is > 1000 nM. Also, in series [3] (setting [4]), the recovery at 90 min worked out at 87.7%. Moreover, the recovery at 90 min in series [3] (setting [5]) stood at 98.1%. In series [3], the efflux ratio at 90 min came to 14.6, the Papp A→B at 90 min turned out to be 2 ×10⁻⁶ cm/s and the Papp B→A at 90 min is 29.1 ×10⁻⁶ cm/s.

On to `CC(C)(C)NS(=O)(=O)c1cc(NC(=O)NCc2ccccc2)ccc1-c1cnc([C@H]2CC[C@H](NC(=O)OC3COC3)CC2)s1` [Ex. 47, trans-oxetan-3-yl N-[4-[5-[4-(benzylcarbamoylamino)-2-(tert-butylsulfamoyl)phenyl]thiazol-2-yl]cyclohexyl]carbamate], for which the 50% effective concentration (EC50) in series [1] is ≤ 100 nM. Further, in series [2], the concentration giving a half-maximal response (EC50) was > 1000 nM. In addition, the recovery at 90 min in series [3] (setting [4]) was found to be 65.3%. For the same compound, the recovery at 90 min in series [3] (setting [5]) amounted to 80.7%. In addition, in series [3], the efflux ratio at 90 min stood at 1.4, the Papp A→B at 90 min came out at 8.7 ×10⁻⁶ cm/s and the Papp B→A at 90 min was determined as 12.4 ×10⁻⁶ cm/s.

As to `C[C@H](NC(=O)Nc1ccc(-c2cnc(C3CCC(NC(=O)OC4COC4)CC3)s2)c(S(=O)(=O)NC(C)(C)C)c1)c1ccccc1` (stereo partly drawn) [Ex. 51, oxetan-3-yl ((1S,4r)-4-(5-(2-(N-(tert-butyl)sulfamoyl)-4-(3-((S)-1-phenylethyl)ureido)phenyl)thiazol-2-yl)cyclohexyl)carbamate], the EC50 in series [1] was ≤ 100 nM; in series [2] it was > 1000 nM. Also, the recovery at 90 min in series [3] (setting [4]) is 65%; in series [3] (setting [5]), 85.7%. For the same compound, the efflux ratio at 90 min in series [3] was found to be 1.1. In addition, the Papp A→B at 90 min in series [3] stood at 9.9 ×10⁻⁶ cm/s. Besides, the Papp B→A at 90 min in series [3] was 10.5 ×10⁻⁶ cm/s.

Compound `CC(C)OC(=O)Nc1ccc(-c2sc(C3CCC(NC(=O)OC(C)C)CC3)nc2F)c(S(=O)(=O)NC(C)(C)C)c1` (centres unmarked) [Ex. 58, isopropyl ((1r,4r)-4-(5-(2-(N-(tert-butyl)sulfamoyl)-4-((isopropoxycarbonyl)amino)phenyl)-4-fluorothiazol-2-yl)cyclohexyl)carbamate] yielded an EC50 in series [1] of 100 to 1000 nM. In addition, the EC50 in series [2] is > 1000 nM. The recovery at 90 min in series [3] (setting [4]) was 52.3%. Also, in series [3] (setting [5]), the recovery at 90 min was 83.5%. For the same compound, in series [3], the efflux ratio at 90 min stood at 0.7, the Papp A→B at 90 min was determined as 5.1 ×10⁻⁶ cm/s and the Papp B→A at 90 min came to 3.4 ×10⁻⁶ cm/s.

In the case of `CC(C)OC(=O)N[C@H]1CC[C@H](c2ncc(-c3ccc(NC(=O)N[C@H](C)c4ccccn4)cc3S(=O)(=O)NC(C)(C)C)s2)CC1` [Ex. 30, isopropyl ((1R,4r)-4-(5-(2-(N-(tert-butyl)sulfamoyl)-4-(3-((R)-1-(pyridin-2-yl)ethyl)ureido)phenyl)thiazol-2-yl)cyclohexyl)carbamate], the EC50 in series [1] is ≤ 100 nM. Also, the half-maximal effective concentration (EC50) in series [2] was > 1000 nM. In series [3] (setting [4]), the recovery at 90 min turned out to be 79.8%. Also, the recovery at 90 min in series [3] (setting [5]) was 116%. In addition, in series [3], the efflux ratio at 90 min is 1.4, the Papp A→B at 90 min was found to be 11.5 ×10⁻⁶ cm/s and the Papp B→A at 90 min is 15.7 ×10⁻⁶ cm/s.

Regarding `CC(C)OC(=O)Nc1ccc(-c2cnc([C@H]3CC[C@H](NC(=O)OC(C)C)CO3)s2)c(S(=O)(=O)NC(C)(C)C)c1` [Ex. 60B], the EC50 in series [1] was in the range of 100 to 1000 nM. Besides, in series [2], the EC50 was > 1000 nM. Besides, the recovery at 90 min in series [3] (setting [4]) is 51.2%. In series [3] (setting [5]), the recovery at 90 min was 84.3%. In addition, in series [3], the efflux ratio at 90 min worked out at 1.2, the Papp A→B at 90 min came out at 11.6 ×10⁻⁶ cm/s and the Papp B→A at 90 min was 13.5 ×10⁻⁶ cm/s.

For the compound `CC(C)OC(=O)N[C@H]1CC[C@H](c2nc(F)c(-c3ccc(NC(=O)NCc4ccccc4)cc3S(=O)(=O)NC(C)(C)C)s2)CC1` [Ex. 57, trans-isopropyl N-[4-[5-[4-(benzylcarbamoylamino)-2-(tert-butylsulfamoyl)phenyl]-4-fluoro-thiazol-2-yl]cyclohexyl]carbamate], the EC50 in series [1] is ≤ 100 nM. Further, in series [2], the concentration giving a half-maximal response (EC50) was > 1000 nM. Moreover, in series [3] (setting [4]), the recovery at 90 min worked out at 61.9%. Besides, the recovery at 90 min in series [3] (setting [5]) came out at 86.8%. For the same compound, in series [3], the efflux ratio at 90 min came out at 2.7, the Papp A→B at 90 min was found to be 1.3 ×10⁻⁶ cm/s and the Papp B→A at 90 min was found to be 3.5 ×10⁻⁶ cm/s.

With `C[C@@H](NC(=O)Nc1ccc(-c2cnc(C3CCC(NC(=O)OC4COC4)CC3)s2)c(S(=O)(=O)NC(C)(C)C)c1)c1ccccc1` (stereo partly drawn) [Ex. 52, oxetan-3-yl ((1R,4r)-4-(5-(2-(N-(tert-butyl)sulfamoyl)-4-(3-((R)-1-phenylethyl)ureido)phenyl)thiazol-2-yl)cyclohexyl)carbamate], the EC50 in series [1] was ≤ 100 nM. Moreover, the EC50 in series [2] is > 1000 nM. In series [3] (setting [4]), the recovery at 90 min stood at 64.1%. The recovery at 90 min in series [3] (setting [5]) came to 91.7%. In series [3], the efflux ratio at 90 min came to 1.5, the Papp A→B at 90 min came to 7.4 ×10⁻⁶ cm/s and the Papp B→A at 90 min came out at 10.9 ×10⁻⁶ cm/s.

For the origin of these results see patent publication US10336746B1, “RAD51 inhibitors” (Cyteir Therapeutics, Inc., priority 2017, dated 2019).
